This is an account of results in PubChem BioAssay (NCI).

Where “and” joins values, the source holds several entries; their conditions need not be identical. Identical values can stand only once.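 Compound exposure: 48 hours, 5 concentrations, 96-well plates. GI50 = concentration required for 50% inhibition of growth. TGI: total growth inhibition.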 Where only a bound is given, the exact number is not on record here.

Some test systems named below: NCI/ADR-RES ovarian; TK-10 renal; HCT-116 colon; OVCAR-3 ovarian; SF-295 CNS; COLO 205 colon; XF 498 CNS; SK-MEL-2 melanoma; K-562 leukemia; M19-MEL melanoma; KM20L2 colon; HOP-92 NSCLC.
Holding throughout (assay): growth of human tumour cells (NCI), 48 h

`Fc1ccc(C2CC(c3cccc(Nc4ccncc4)c3)=NN2c2cc(Cl)cc(Cl)c2)cc1` (stereo unspecified): the GI50 was 1.71 µM in the assay with NCI/ADR-RES ovarian; 1.94 µM in the assay on TK-10 renal; 1.66 µM with HCT-116 colon; 1.8 µM with OVCAR-3 ovarian; 1.77 µM in the assay on SF-295 CNS; 2.21 µM with COLO 205 colon. For the same compound, the TGI is 3.34 µM in the assay on NCI/ADR-RES ovarian; 3.84 µM in the assay on TK-10 renal; 3.15 µM in the assay with HCT-116 colon; 3.32 µM with OVCAR-3 ovarian; 3.21 µM with SF-295 CNS; 4.81 µM with COLO 205 colon.

As for `COC(=O)c1nc(-c2ccc3c(n2)C(=O)C(N)=C(OC)C3=O)c(N)c(-c2ccc(OC)c(OC)c2O)c1C`, the TGI with XF 498 CNS is 2.85 µM; in the assay with NCI/ADR-RES ovarian it was 3.09 µM; with SK-MEL-2 melanoma, 3.26 µM; in the assay with K-562 leukemia it was 5.63 µM; in the assay with M19-MEL melanoma, 1.26 µM; in the assay with HCT-116 colon it was 2.14 µM. Also, the TGI in the assay on KM20L2 colon is 5.97 µM; with OVCAR-3 ovarian, 1.66 µM; with SF-295 CNS, 2.02 µM; in the assay with HOP-92 NSCLC, 5.79 µM; in the assay with COLO 205 colon it was 3.61 µM.

As to `COc1ccc(C[C@H](N)C(=O)N2C[C@H](CO)C[C@H](n3ccc(=O)[nH]c3=O)C2)cc1`, the TGI in the assay on SK-MEL-2 melanoma, with TK-10 renal, in the assay on K-562 leukemia, in the assay with M19-MEL melanoma, in the assay on HCT-116 colon and in the assay on KM20L2 colon was over 100 µM each time. Moreover, the TGI in the assay on OVCAR-3 ovarian, in the assay with HOP-92 NSCLC and with COLO 205 colon was over 100 µM throughout.

Take `CC(=O)OCc1cc(=O)n(C)c2c3c4c(cc12)c(C)cc(=O)n4CO3`: the TGI came to 3.82 µM in the assay on XF 498 CNS; 10.9 µM in the assay on NCI/ADR-RES ovarian; 3.65 µM with SK-MEL-2 melanoma; 27.7 µM with K-562 leukemia; 4.21 µM in the assay with M19-MEL melanoma; 20 µM with HCT-116 colon. Further, the TGI in the assay on KM20L2 colon amounted to 15.8 µM; in the assay with OVCAR-3 ovarian, 7.74 µM; in the assay with SF-295 CNS, 6.49 µM; in the assay on HOP-92 NSCLC, 10 µM; in the assay with COLO 205 colon, 4.23 µM.

Regarding `[N-]=[N+]=NC1CC(n2cc(COCC(F)(F)F)c(=O)[nH]c2=O)OC1CO` (stereo unspecified), the TGI in the assay on XF 498 CNS, in the assay with SK-MEL-2 melanoma, in the assay with TK-10 renal, in the assay with K-562 leukemia, with M19-MEL melanoma and in the assay with KM20L2 colon was over 100 µM throughout. The TGI with OVCAR-3 ovarian, in the assay with SF-295 CNS, in the assay on HOP-92 NSCLC and in the assay on COLO 205 colon was over 100 µM in each case.

For `CN(C)CCOC(=O)c1ccc(N)cc1`, the TGI with NCI/ADR-RES ovarian, in the assay on TK-10 renal, in the assay on K-562 leukemia, in the assay on HCT-116 colon, with OVCAR-3 ovarian and in the assay on SF-295 CNS was over 100 µM in each case. Besides, the figures for the TGI in the assay on HOP-92 NSCLC and in the assay with COLO 205 colon were 49.5 µM and over 100 µM, respectively.

With `O=C1c2ccccc2C(=O)c2c1ccc1c2N=C(c2ccc(F)cc2)CC(c2ccc(Cl)c(Cl)c2)N1` (stereo unspecified), the TGI in the assay with SK-MEL-2 melanoma was found to be 29.3 µM; with TK-10 renal, 34 µM; in the assay with K-562 leukemia, 33.5 µM; in the assay with M19-MEL melanoma it was 40.4 µM; with HCT-116 colon it was 23.7 µM; with KM20L2 colon it was 30.8 µM. Also, the values for the TGI with SF-295 CNS, in the assay on HOP-92 NSCLC and in the assay with COLO 205 colon were 28.6 µM, 90 µM and 33.4 µM, respectively.

On to `C[C@@H]1C[C@]2(C[C@@H](C)[C@H]3C(C[C@@]4(C)CCC[C@@H]5C6=C[C@H](CCC34C)OC6=CC(=O)OC5(C)C)O2)OC1=O` (stereo partly specified), for which the TGI in the assay on XF 498 CNS, in the assay with NCI/ADR-RES ovarian, in the assay on SK-MEL-2 melanoma, with K-562 leukemia, in the assay with M19-MEL melanoma and in the assay on KM20L2 colon was over 51.5 µM in each case. The TGI in the assay with OVCAR-3 ovarian, in the assay with SF-295 CNS, with HOP-92 NSCLC and with COLO 205 colon was over 51.5 µM throughout.

Take `CCOC(=O)c1c2c(n3ccc(NC(=O)OC(C)(C)C)cc13)C(=O)c1ncccc1C2=O`: the GI50 in the assay with SK-MEL-2 melanoma was 0.44 µM; in the assay with TK-10 renal it was 0.132 µM; in the assay on SF-295 CNS, 0.272 µM; in the assay on HOP-92 NSCLC it was 0.137 µM; with COLO 205 colon, 0.352 µM. Besides, the TGI in the assay on SK-MEL-2 melanoma came to 9.24 µM; with TK-10 renal, 3.39 µM; with SF-295 CNS, 1.13 µM; in the assay with HOP-92 NSCLC it was 0.927 µM; with COLO 205 colon it was 1.56 µM.

Take `CN(C)CCCNc1c2ccccc2nc2cccc([N+](=O)[O-])c12`: the TGI in the assay on XF 498 CNS is 0.0147 µM; with NCI/ADR-RES ovarian, 0.186 µM; with SK-MEL-2 melanoma, 0.00221 µM; with TK-10 renal it was 0.00909 µM and 0.0869 µM; in the assay with K-562 leukemia, over 100 µM; in the assay with M19-MEL melanoma it was 0.0787 µM. Moreover, the TGI is 0.0132 µM and 0.0316 µM in the assay with HCT-116 colon; 0.0398 µM in the assay on KM20L2 colon; 0.0673 µM with OVCAR-3 ovarian; 0.0167 µM and 0.0867 µM in the assay on SF-295 CNS; 0.00435 µM with HOP-92 NSCLC. Besides, the values for the GI50 in the assay with TK-10 renal and in the assay with SF-295 CNS were 0.0203 µM and under 0.001 µM, respectively.

Regarding `CSc1nc(NC2OCC(O)C(O)C2O)c(N)c(=O)n1C` (stereo unspecified), the TGI in the assay on XF 498 CNS, with NCI/ADR-RES ovarian, with SK-MEL-2 melanoma, in the assay on K-562 leukemia, in the assay on HCT-116 colon and in the assay with KM20L2 colon was over 100 µM throughout. The TGI in the assay with OVCAR-3 ovarian, in the assay with SF-295 CNS, in the assay with HOP-92 NSCLC and in the assay with COLO 205 colon was over 100 µM in each case.

Consider `Cc1cc(N=Cc2c(CO)cnc(C)c2O)c(N=Cc2c(CO)cnc(C)c2O)cc1C.[Zn]`, for which the TGI in the assay on NCI/ADR-RES ovarian, in the assay with SK-MEL-2 melanoma, in the assay with TK-10 renal, with HCT-116 colon, in the assay on OVCAR-3 ovarian and in the assay with SF-295 CNS was over 100 µM throughout. Besides, the TGI in the assay on HOP-92 NSCLC and in the assay with COLO 205 colon was over 100 µM throughout.
